In US20210115071A1, “NANOSCALE METAL-ORGANIC FRAMEWORKS FOR ENHANCED TUMOR CHEMORADIATION” (Oregon State University, priority 2019, published 2021):

Key:
[1] = Drug loading / encapsulation efficiency in Hf-BDC-PEG by HPLC; assay type: physicochemical; conditions: loaded into Hf-BDC-PEG
Method: (§1) Talazoparib and buparlisib were loaded into the Hf-BDC-PEG nMOFs by directly adding aliquots of the dissolved drugs (10 mg/mL in DMSO) at the desired concentrations into distilled water (2 mL) with the Hf-BDC-PEG nMOFs (approximately 5.0 mg) and stirred overnight. Unloaded drug(s) were removed by centrifugation and the supernatant was collected and quantified on HPLC to determine the concentration of unloaded talazoparib and buparlisib. A calibration curve for talazoparib and buparlisib was obtained using standard solutions at different concentrations and the curve was fitted with linear regression. Encapsulation efficiency was determined based on the ratio of the amount of drug loaded in Hf-BDC-PEG to the total amount added. The resulting nMOFs were dried under vacuum and stored until use. The influence of pH on drug release of talazoparib and buparlisib from the Hf-BDC-PEG nMOF was investigated using dialysis. TB@Hf-MOF (1.6 mg, 500 μL) was loaded into Slide-A-Lyzer MINI dialysis microtubes with a molecular weight cutoff of 2,000. The loaded samples were dialyzed against 12 mL of buffer (pH 5.5 or 7.4 PBS) with gentle stirring under ambient conditions. At designated time points of 0, 1, 2, 4, 24, 48, 72, 168, and 336 hours, sink samples (6 mL) were collected and replaced with fresh solution. Talazoparib and buparlisib concentrations were determined via HPLC, and drug release profiles were plotted as cumulative % of total drug release vs. time. All drug release measurements were performed in triplicate.

CT26.wt cells = assay: Free drug cytotoxicity and combination index; assay type: cell-based, Murine; conditions: for IC50 decrease in combination vs individual drug: 30:1 TMZ:Tal; for IC50: Mus musculus, CT26.WT, 72 hrs, combination as overall concentration
Method: Free drug cytotoxicity was investigated with Tal and TMZ as individual and combination agents. To determine the optimal TMZ:Tal ratio, CT26.wt cells were plated at 4×10^3 cells per well in a 96-well plate and allowed to settle overnight. Cells were then treated with TMZ (0, 10, 30, 150, 300, 600 or 1000 μM), Tal (0, 1, 5, 10, or 100 μM), or TMZ:Tal at each of the concentrations combined (ratios ranging from 1000:1 to 1:10) and incubated for 72 hrs. Combination indexes (CIs) were determined for all combinations (including only those points on the curve with Fa values between 0.1 and 0.9) using CompuSyn (ComboSyn Inc., Paramus, N.J., USA).

[2] = Drug release from TB@Hf-BDC-PEG by dialysis; assay type: physicochemical; conditions: 25° C.
Method: as §1, with “Unloaded” for “Talazoparib and buparlisib were loaded into the Hf-BDC-PEG nMOFs by directly adding aliquots of the dissolved drugs (10 mg/mL in DMSO) at the desired concentrations into distilled water (2 mL) with the Hf-BDC-PEG nMOFs (approximately 5.0 mg) and stirred overnight. Unloaded”

4T1 cells = conditions: free drug, previously reported by the inventors; read-out: individual agent IC50; cited from earlier work
[3] = cited from earlier work
[4] = Drug loading of Hf-BDC nMOF (encapsulation efficiency); assay type: physicochemical; conditions: loaded in Hf-BDC nMOF
Method: nMOFs were suspended in either 18 MΩ water (generation 1) or methanol (generation 2) at 5 mg/mL depending on colloidal stability. nMOF redispersed in water at 5 mg/mL was combined with fucoidan or dextran (both at 1 mg/mL in 18 MΩ water) at a 1:1 v/v ratio, sonicated for 1 hour, and filtered. nMOF redispersed in methanol at 5 mg/mL was combined with fucoidan or dextran (both at 1 mg/mL in 18 MΩ water) at a 1:1 v/v ratio, sonicated for 15 mins and stirred open overnight. After evaporation nMOFs were redispersed to 2.5 mg/mL nMOF in water and subsequently filtered. For drug loading, all steps remained the same except that drug dissolved in DMSO (Tal and/or TMZ or Cyanine 7.5) was added to the nMOF in water or methanol, sonicated for one hour, and washed by centrifuge twice (collecting the supernatant for quantification) before continuing with either surface coating procedure.

Row | SMILES | Encapsulation efficiency (EE %) [1] | IC50 decrease in combination vs individual drug (CT26.wt cells) | IC50 (CT26.wt cells) | drug released within the first 24 hours ([2]; pH 5.5, PBS) | drug release after two weeks incubation ([2]; pH 7.5, PBS) | drug released within the first 24 hours ([2]; pH 7.5, PBS) | IC50 (4T1 cells) | log P [3] | average encapsulation efficiencies (EE) [4]
1 | C[N+]1=C(C=CC2=CC(=CC=C3N(CCCCCC(=O)O)c4ccc5ccccc5c4C3(C)C)CCC2)C(C)(C)c2c1ccc1ccccc21.[Cl-] [Cy 7.5, cyanine 7.5 carboxylic acid] | approximately 98% |  |  |  |  |  |  |  | 
2 | Cn1nnc2c(C(N)=O)ncn2c1=O [TMZ, temozolomide] |  | 3.3 fold | 34 µM |  |  |  |  |  | 
3 | Nc1cc(C(F)(F)F)c(-c2cc(N3CCOCC3)nc(N3CCOCC3)n2)cn1 [buparlisib] | 14% |  |  | ~37% | ~100% | 24% | 4.7 µM | 2.13 | 
4 | Cn1ncnc1[C@H]1c2n[nH]c(=O)c3cc(F)cc(c23)N[C@@H]1c1ccc(F)cc1 [talazoparib] | 77% | 14.6 fold | 5.1 µM | approximately 21% | approximately 85% | 11% | 1.4 µM | 2.93 | 54%
